Consider 15 compounds from patent publication US5496824A, “Cyclopropane derivatives and anti-viral agent containing the same” (Ajinomoto Co., Inc., priority 1993, dated 1996).

In brackets after ≈: the same amount, converted by molar mass.

What all share (type): cell-based
A short description of series [1]: in vitro. The note with it: african green monkey, vero cells. The protocol:
(§1) The anti-viral activity of the prepared compounds against herpes simplex virus was measured by neutral red dye-uptake method (J. Infect. Dis. 148: 868 (1983)) with modification. Precisely, threefold dilutions of the compounds were prepared in 100 μl volumes of culture medium in the wells of a 96-well culture plate. Sixty microliters of a suspension of Vero cells (3×10^5 cells/ml) were then dispensed into each well. HSV-1 (Tomioka strain) was diluted in medium to approximately 100 TCID50 /40 μl, as determined by prior titration in a similar dye uptake assay, and 40 μl of viral suspension were added to the respective wells. Control wells containing no test compound and no virus (cell control) or no cells (blank control) were included in each plate. After 3 days incubation at 37° C. in 5% CO2 atmosphere, 50 μl of neutral red dye (0.15% in saline, pH 5.5) was dispensed into each well and the cultures were incubated for a further 45 min at 37° C. Unincorporated dye was removed by rinsing with PBS. The dye incorporated by viable cells was then eluted into 100 μl per well of citrate ethanol buffer (pH 4.2; equal volumes of 0.1 M Sorensen citrate buffer and ethanol), and absorbance at 540 nm of the solution was measured. […] As a comparative compound, acyclovir was used.

Series [2] has as its system HSV-1 (Tomioka strain). Nature of the series: Anti-viral activity against herpes simplex virus, neutral red dye-uptake method in Vero cells. The note with it: Human alphaherpesvirus 1, 72 h, 3 days at 37° C., read-out: ID50 (the source's name). The protocol:
as §1

Series [3] concerns varicella zoster virus (Kawaguchi strain). Briefly: Anti-viral activity against varicella zoster virus, plaque reduction assay in human embryonic lung (HEL) cells. The note with it: Human alphaherpesvirus 3, 72 h, 3 days, read-out: PI50 (50% plaque decrease concentration). The protocol: The activity of test compounds against varicella zoster virus was measured by plaque reduction assay. Confluent monolayers of human embryonic lung (HEL) cells grown in 6-well plates were infected with varicella zoster virus (Kawaguchi strain) in such a way that each well might have 100 plaque-forming units. After incubated at 37 C. for one hour in 5% CO2 atmosphere, the inoculum was removed and 3 ml of maintenance media containing the test compound having a varying concentration was added thereto. The incubation was continued for 3 days. After incubation, the cells were fixed and stained, the number of plaques was counted microscopically. In comparison to the control, the 50% plaque decrease concentration (PI50) of the test compound was determined. As a comparative compound, acyclovir was used.
In general terms: In a plaque reduction assay, fewer plaques than in the control indicate reduced infectivity or spread.

With `O=c1[nH]c(=O)n(C[C@]2(CO)C[C@@H]2CO)cc1/C=C/Br` (relative stereo) [Example 15, 1-[1'α,2'β-2-bis(hydroxymethyl)cyclopropanyl-yl]methyl-5-[(E)-2-bromoethenyl]-2,4(1H,3H)-pyrimidinedione], the CC50 at 72 h in series [1] was greater than 500 µg/mL. The EC50 in series [2] worked out at 78 µg/mL (≈ 236 µM). Besides, the IC50 in series [3] is 87 µg/mL (≈ 263 µM).

In series [1], `O=c1[nH]c(=O)n(C[C@]2(CO)C[C@H]2CO)cc1F` [Example 1, 1-[1'S,2'R-bis(hydroxymethyl)-cyclopropan-1'-yl]methyl-5-fluoro-2,4(1H,3H)pyrimidinedione] returned a CC50 at 72 h greater than 500 µg/mL. For the same compound, the EC50 in series [2] is greater than 500 µg/mL. Also, the IC50 in series [3] is greater than 100 µg/mL.

Take `O=c1[nH]c(=O)n(C[C@]2(CO)C[C@H]2CO)cc1Cl` [Example 2, 1-[1'S,2'R-bis(hydroxymethyl)-cyclopropan-1'-yl]methyl-5-chloro-2,4(1H,3H)-pyrimidinedione]: the CC50 at 72 h in series [1] was greater than 500 µg/mL. Besides, in series [2], the EC50 is 295 µg/mL (≈ 1130 µM). Further, the IC50 in series [3] is greater than 100 µg/mL.

Consider `O=c1[nH]c(=O)n(C[C@]2(CO)C[C@H]2CO)cc1Br` [Example 3, 1-[1'S,2'R-bis(hydroxymethyl)-cyclopropan-1'-yl]methyl-5-bromo-2,4(1H,3H)-pyrimidinedione], for which the cytotoxic concentration (CC50) at 72 h in series [1] was greater than 500 µg/mL. In series [2], the EC50 was determined as 215 µg/mL (≈ 705 µM). The IC50 in series [3] amounted to 97 µg/mL (≈ 318 µM).

Compound `O=c1[nH]c(=O)n(C[C@]2(CO)C[C@H]2CO)cc1I` [Example 4, 1-[1'S,2'R-bis(hydroxymethyl)-cyclopropan-1'-yl]methyl-5-iodo-2,4(1H,3H)-pyrimidinedione] gave a CC50 at 72 h in series [1] greater than 500 µg/mL. For the same compound, the EC50 in series [2] is 90 µg/mL (≈ 256 µM). Also, the IC50 in series [3] amounted to 9.3 µg/mL (≈ 26.4 µM).

`O=c1[nH]c(=O)n(C[C@]2(CO)C[C@H]2CO)cc1C(F)(F)F` [Example 5, 1-[1'S,2'R-bis(hydroxymethyl)-cyclopropan-1'-yl]methyl-5-trifluoromethyl-2,4(1H,3H)-pyrimidinedione]: the midpoint of cytotoxicity in series [1], the CC50 at 72 h, lay at 234 µg/mL (≈ 795 µM). Further, the EC50 in series [2] was greater than 500 µg/mL. Also, the IC50 in series [3] was greater than 100 µg/mL.

Regarding `C=Cc1cn(C[C@]2(CO)C[C@H]2CO)c(=O)[nH]c1=O` [Example 6, 1-[1'S,2'R-bis(hydroxymethyl)cyclopropan-1'-yl]methyl-5-ethenyl-2,4(1H,3H)-pyrimidinedione], the CC50 at 72 h in series [1] was greater than 500 µg/mL. The EC50 in series [2] stood at 3.2 µg/mL (≈ 12.7 µM). The IC50 in series [3] came out at 11.1 µg/mL (≈ 44 µM).

In turn, `O=c1[nH]c(=O)n(C[C@]2(CO)C[C@H]2CO)cc1/C=C/Cl` [Example 7, 1-[1'S, 2'R-bis(hydroxymethyl)-cyclopropan-1'-yl]methyl-5-[(E)-2-chloroethenyl]-2,4(1H,3H)-pyrimidinedione] displayed a half-maximal cytotoxic concentration (CC50) at 72 h in series [1] greater than 500 µg/mL. The EC50 in series [2] came out at 4.3 µg/mL (≈ 15 µM). In series [3], the IC50 was 0.07 µg/mL (≈ 0.244 µM).

As to `O=c1[nH]c(=O)n(C[C@]2(CO)C[C@H]2CO)cc1/C=C/Br` [Example 8, 1-[1'S,2'R-bis(hydroxymethyl)-cyclopropan-1'-yl]methyl-5-[(E)-2-bromoethenyl]-2,4(1H,3H)-pyrimidinedione], in series [1], the cytotoxic concentration (CC50) at 72 h was greater than 500 µg/mL. Also, in series [2], the EC50 is 14.5 µg/mL (≈ 43.8 µM). For the same compound, the IC50 in series [3] was found to be 0.031 µg/mL (≈ 0.0936 µM).

For `O=c1[nH]c(=O)n(C[C@]2(CO)C[C@H]2CO)cc1/C=C/I` [Example 10, 1-[1'S,2'R-bis(hydroxymethyl)-cyclopropan-1'-yl]methyl-5-[(E)-2-iodoethenyl]-2,4(1H,3H)-pyrimidinedione], in series [1], the CC50 at 72 h stood at 330 µg/mL (≈ 873 µM). The EC50 in series [2] was 24.6 µg/mL (≈ 65.1 µM). Also, in series [3], the IC50 was 0.054 µg/mL (≈ 0.143 µM).

For the compound `C#Cc1cn(C[C@]2(CO)C[C@H]2CO)c(=O)[nH]c1=O` [Example 11, 1-[1'S,2'R-bis(hydroxymethyl)-cyclopropan-1'-yl]methyl-5-ethynyl-2,4(1H,3H)-pyrimidinedione], in series [1], the CC50 at 72 h is greater than 500 µg/mL. In series [2], the EC50 turned out to be 310 µg/mL (≈ 1240 µM). Further, in series [3], the IC50 is greater than 100 µg/mL.

Compound `CC#Cc1cn(C[C@]2(CO)C[C@H]2CO)c(=O)[nH]c1=O` [Example 12, 1-[1'S,2'R-bis(hydroxymethyl)-cyclopropan-1'-yl]methyl-5-(1-propynyl)-2,4(1H,3H)-pyrimidinedione] came in with a CC50 at 72 h in series [1] greater than 500 µg/mL. The EC50 in series [2] came out at 325 µg/mL (≈ 1230 µM). Also, the IC50 in series [3] was 19.8 µg/mL (≈ 74.9 µM).

For `CCc1cn(C[C@]2(CO)C[C@H]2CO)c(=O)[nH]c1=O` [Example 13, 1-[1'S,2'R-bis(hydroxymethyl)-cyclopropan-1'-yl]methyl-5-ethyl-2,4(1H,3H)-pyrimidinedione], the CC50 at 72 h in series [1] is greater than 500 µg/mL. For the same compound, the EC50 in series [2] worked out at 24.3 µg/mL (≈ 95.6 µM). For the same compound, the IC50 in series [3] was 95 µg/mL (≈ 374 µM).

Regarding `O=c1[nH]c(=O)n(C[C@@]2(CO)C[C@@H]2CO)cc1/C=C/Br` [Example 14, 1-[1'R,2'S-bis(hydroxymethyl)-cyclopropan-1'-yl]methyl-5-[(E)-2-bromoethenyl]-2,4(1H,3H)-pyrimidinedione], the CC50 at 72 h in series [1] is greater than 500 µg/mL. Further, in series [2], the EC50 was greater than 500 µg/mL. The IC50 in series [3] turned out to be 7.4 µg/mL (≈ 22.3 µM).

In turn, `Nc1nc2c(ncn2COCCO)c(=O)[nH]1` [acyclovir, reference compound] registered a CC50 at 72 h in series [1] greater than 500 µg/mL. For the same compound, the EC50 in series [2] was 0.8 µg/mL (≈ 3.55 µM).

Broadly, the CC50 is the concentration that lowers cell viability or growth by half.
